Measured values published in ChEMBL document CHEMBL1201862, “PubChem BioAssay data set” (2004).
The source made the active and inactive calls.

Legend:
Assay type in all cases: functional
[1] = target: T1, Replicative DNA helicase DnaB (Mycobacterium tuberculosis, UniProt P9WMR3); assay: DnaB intein splicing inhibitors, dose response, biochemical, cell-free fluorescence (AID 449749)
T1 sequence (P9WMR3 whole entry): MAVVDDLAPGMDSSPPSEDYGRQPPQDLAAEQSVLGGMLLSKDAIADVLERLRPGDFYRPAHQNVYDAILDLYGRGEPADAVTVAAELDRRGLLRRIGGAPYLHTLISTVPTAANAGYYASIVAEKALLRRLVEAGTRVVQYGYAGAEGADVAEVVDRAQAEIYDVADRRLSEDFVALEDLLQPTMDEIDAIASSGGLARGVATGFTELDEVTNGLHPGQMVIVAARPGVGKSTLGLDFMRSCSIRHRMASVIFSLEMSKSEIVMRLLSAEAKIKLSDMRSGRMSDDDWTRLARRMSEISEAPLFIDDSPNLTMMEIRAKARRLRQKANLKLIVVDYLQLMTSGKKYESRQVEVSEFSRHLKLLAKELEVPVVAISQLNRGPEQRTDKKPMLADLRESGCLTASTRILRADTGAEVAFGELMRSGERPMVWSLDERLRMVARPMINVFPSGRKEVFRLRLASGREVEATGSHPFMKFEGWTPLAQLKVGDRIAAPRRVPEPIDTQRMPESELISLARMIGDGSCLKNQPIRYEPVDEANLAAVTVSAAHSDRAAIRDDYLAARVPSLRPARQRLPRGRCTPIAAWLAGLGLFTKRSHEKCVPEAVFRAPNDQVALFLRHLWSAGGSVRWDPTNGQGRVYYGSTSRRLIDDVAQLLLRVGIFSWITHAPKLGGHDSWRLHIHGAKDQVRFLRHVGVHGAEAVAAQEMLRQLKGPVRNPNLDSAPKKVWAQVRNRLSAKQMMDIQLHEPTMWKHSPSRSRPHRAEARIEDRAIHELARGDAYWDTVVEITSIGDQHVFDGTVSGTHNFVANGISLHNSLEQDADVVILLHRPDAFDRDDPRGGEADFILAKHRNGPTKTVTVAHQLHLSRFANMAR

[2] = target: T2, Apoptotic protease-activating factor 1 (Homo sapiens, UniProt O14727)
T2 sequence (O14727 whole entry): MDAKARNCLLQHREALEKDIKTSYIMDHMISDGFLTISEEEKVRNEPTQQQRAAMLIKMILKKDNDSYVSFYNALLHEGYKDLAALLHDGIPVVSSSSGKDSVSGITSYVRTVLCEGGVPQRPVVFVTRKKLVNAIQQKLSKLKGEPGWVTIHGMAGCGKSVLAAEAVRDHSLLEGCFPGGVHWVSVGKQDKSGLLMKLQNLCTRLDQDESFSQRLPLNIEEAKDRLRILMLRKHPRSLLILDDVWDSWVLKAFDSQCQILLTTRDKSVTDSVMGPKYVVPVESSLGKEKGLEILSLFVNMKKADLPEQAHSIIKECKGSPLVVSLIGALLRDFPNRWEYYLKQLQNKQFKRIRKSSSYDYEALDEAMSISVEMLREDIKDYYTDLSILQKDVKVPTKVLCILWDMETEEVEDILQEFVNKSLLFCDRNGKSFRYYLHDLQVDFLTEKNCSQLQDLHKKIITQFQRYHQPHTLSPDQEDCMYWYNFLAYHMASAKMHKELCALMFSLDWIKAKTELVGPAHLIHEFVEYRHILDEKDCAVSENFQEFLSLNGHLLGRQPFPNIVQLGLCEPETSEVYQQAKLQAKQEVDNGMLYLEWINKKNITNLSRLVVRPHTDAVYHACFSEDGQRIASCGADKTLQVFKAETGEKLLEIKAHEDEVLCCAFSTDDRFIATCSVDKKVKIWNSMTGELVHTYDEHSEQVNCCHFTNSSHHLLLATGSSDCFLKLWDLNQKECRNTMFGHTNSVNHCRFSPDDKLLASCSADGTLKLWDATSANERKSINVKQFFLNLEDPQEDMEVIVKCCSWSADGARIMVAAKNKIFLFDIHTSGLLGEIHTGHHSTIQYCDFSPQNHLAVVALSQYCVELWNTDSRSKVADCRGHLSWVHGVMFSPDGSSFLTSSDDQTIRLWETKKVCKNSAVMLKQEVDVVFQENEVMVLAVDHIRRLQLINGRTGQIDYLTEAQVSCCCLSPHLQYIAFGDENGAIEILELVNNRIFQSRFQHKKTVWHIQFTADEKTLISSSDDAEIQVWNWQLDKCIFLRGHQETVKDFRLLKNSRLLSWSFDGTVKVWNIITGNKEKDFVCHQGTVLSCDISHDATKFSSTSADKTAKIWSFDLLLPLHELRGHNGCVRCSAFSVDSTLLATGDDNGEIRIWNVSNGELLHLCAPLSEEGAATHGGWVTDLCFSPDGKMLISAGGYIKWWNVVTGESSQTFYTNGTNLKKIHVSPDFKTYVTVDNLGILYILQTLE

INS1 = assay: INS-1E survival protection against cytokine death – cell-based, luminescence, retest, dose response (AID 449756); conditions: Rattus norvegicus;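 also: cell death triggered by IL-1 beta plus TNF-alpha plus IFN-gamma mixture; protective hits raise ATP signal compared with cytokine alone wells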
Caspase-3 = target: T3, Caspase-3 (Homo sapiens, UniProt P42574);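 also: Dose-response selectivity test against caspase-3 for candidate inhibitors of sentrin-specific proteases (SENPs)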
T3 sequence (P42574 whole entry): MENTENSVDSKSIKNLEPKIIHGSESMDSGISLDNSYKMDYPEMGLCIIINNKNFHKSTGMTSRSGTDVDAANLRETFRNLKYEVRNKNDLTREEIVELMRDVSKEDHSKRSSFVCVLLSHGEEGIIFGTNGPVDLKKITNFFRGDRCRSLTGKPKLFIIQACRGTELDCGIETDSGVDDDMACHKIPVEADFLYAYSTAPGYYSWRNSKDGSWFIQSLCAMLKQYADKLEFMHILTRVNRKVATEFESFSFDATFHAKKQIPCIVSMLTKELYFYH

| SMILES | AC50 [1] | IC50 [2] | AC50 (INS1) | IC50 (Caspase-3) |
| --- | --- | --- | --- | --- |
| Cc1ccccc1NC1=C/C(=N\S(=O)(=O)c2ccc(C(=O)O)cc2)c2ccccc2C1=O | 105 µM (active) | 1.59 µM (active) | 4.38 µM (active) | – |
| Cc1ccc(NC2=C/C(=N/S(=O)(=O)c3cccs3)c3ccccc3C2=O)cc1 | 0.301 µM (active) | 0.453 µM (active) | 0.72 µM (active) | 2.1 µM (active) |
| COc1ccc(-c2cc(-c3ccc(C)cc3)[nH]n2)c(O)c1 | – | – | – | 76.5 µM (active) |
| O=C(Nc1ccc(C#Cc2ccccc2)cc1)C1CC1 | – | – | – | 43.6 µM (active) |
| COC(=O)C[C@]1(C(=O)OC)CN(C#N)N(c2ccc(Cl)cc2)C12c1ccccc1-c1ccccc12 | 1.83 µM (active) | – | 2.77 µM (active) | – |
| CCCCn1c(NC(=O)c2ccco2)c(C(=O)OCC)c2nc3ccccc3nc21 | – | 13 µM (active) | – | 15.8 µM (active) |
